# Test results taken from ChEMBL document CHEMBL1201862, “PubChem BioAssay data set” (2004).
#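 Five compound concentrations were applied to cells in 96-well plates for 48 hours; endpoints were derived by simple linear interpolation of the resulting dose-response curve. Abbreviation: GI50, concentration required for 50% inhibition of growth.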 Activity calls are given as the source filed them. No stated cut-off is given here; in the data, active = GI50 up to about 1.1 µM and inactive = higher.
# Tests used:
# Test in all cases: NCI-60 cell line screen, 48 h
# EKVX = test system: EKVX
# NCI-H23 = test system: NCI-H23
# SK-MEL-5 = test system: SK-MEL-5
# T47D = test system: T47D
# MDA-N = test system: MDA-N
# UO-31 = test system: UO-31
# SNB-75 = test system: SNB-75
# SF-268 = test system: SF-268
# PC-3 = test system: PC-3
# U-251 = test system: U-251
# OVCAR-3 = test system: OVCAR-3
# A549 = test system: A549
# K562 = test system: K562
# HCT-15 = test system: HCT-15
# RPMI-8226 = test system: RPMI-8226
# CCRF-CEM = test system: CCRF-CEM
# SW-620 = test system: SW-620
# IGROV-1 = test system: IGROV-1
# UACC-257 = test system: UACC-257
# SF-539 = test system: SF-539
# Hs-578T = test system: Hs-578T
# NCI/ADR-RES = test system: NCI/ADR-RES
# SNB-19 = test system: SNB-19
# MOLT-4 = test system: MOLT-4
# OVCAR-5 = test system: OVCAR-5
# TK-10 = test system: TK-10
# MCF7 = test system: MCF7
# 786-0 = test system: 786-0
# HCC 2998 = test system: HCC 2998
# NCI-H226 = test system: NCI-H226
# HCT-116 = test system: HCT-116
# UACC-62 = test system: UACC-62
# OVCAR-4 = test system: OVCAR-4
# A498 = test system: A498
# ACHN = test system: ACHN
# DU-145 = test system: DU-145
# COLO 205 = test system: COLO 205
# BT-549 = test system: BT-549
# MDA-MB-435 = test system: MDA-MB-435
# SR = test system: SR
# SK-OV-3 = test system: SK-OV-3
# HOP-92 = test system: HOP-92
# SK-MEL-28 = test system: SK-MEL-28
# HT-29 = test system: HT-29
# Malme-3M = test system: Malme-3M
# M14 = test system: M14
# CAKI-1 = test system: CAKI-1
# SF-295 = test system: SF-295
# NCI-H460 = test system: NCI-H460
# NCI-H522 = test system: NCI-H522
# KM12 = test system: KM12
# SN12C = test system: SN12C
# SK-MEL-2 = test system: SK-MEL-2
# HOP-62 = test system: HOP-62
# MDA-MB-231 = test system: MDA-MB-231
# LOX IMVI = test system: LOX IMVI
# HL-60 = test system: HL-60
# OVCAR-8 = test system: OVCAR-8
smiles,measurement,setting,value
CC(=O)Nn1c(Cc2ccc(Cl)cc2)nn(C)c1=O,GI50,EKVX,> 100 µM (inactive)
same,GI50,NCI-H23,> 100 µM (inactive)
same,GI50,SK-MEL-5,> 100 µM (inactive)
same,GI50,T47D,> 100 µM (inactive)
same,GI50,MDA-N,> 100 µM (inactive)
same,GI50,UO-31,> 100 µM (inactive)
same,GI50,SNB-75,> 100 µM (inactive)
same,GI50,SF-268,> 100 µM (inactive)
same,GI50,PC-3,> 100 µM (inactive)
same,GI50,U-251,> 100 µM (inactive)
same,GI50,OVCAR-3,> 100 µM (inactive)
same,GI50,A549,> 100 µM (inactive)
same,GI50,K562,> 100 µM (inactive)
same,GI50,HCT-15,> 100 µM
same,GI50,RPMI-8226,> 100 µM (inactive)
same,GI50,CCRF-CEM,> 100 µM (inactive)
same,GI50,SW-620,> 100 µM (inactive)
same,GI50,IGROV-1,> 100 µM (inactive)
same,GI50,UACC-257,> 100 µM (inactive)
same,GI50,SF-539,> 100 µM (inactive)
same,GI50,Hs-578T,> 100 µM (inactive)
same,GI50,NCI/ADR-RES,> 100 µM (inactive)
same,GI50,SNB-19,> 100 µM (inactive)
same,GI50,MOLT-4,> 100 µM (inactive)
same,GI50,OVCAR-5,> 100 µM (inactive)
same,GI50,TK-10,> 100 µM (inactive)
same,GI50,MCF7,> 100 µM (inactive)
same,GI50,786-0,> 100 µM (inactive)
same,GI50,HCC 2998,> 100 µM (inactive)
same,GI50,NCI-H226,> 100 µM (inactive)
same,GI50,HCT-116,> 100 µM (inactive)
same,GI50,UACC-62,> 100 µM (inactive)
same,GI50,OVCAR-4,> 100 µM (inactive)
same,GI50,A498,> 100 µM (inactive)
same,GI50,ACHN,> 100 µM (inactive)
same,GI50,DU-145,> 100 µM (inactive)
same,GI50,COLO 205,> 100 µM (inactive)
same,GI50,BT-549,> 100 µM (inactive)
same,GI50,MDA-MB-435,> 100 µM (inactive)
same,GI50,SR,> 100 µM (inactive)
same,GI50,SK-OV-3,> 100 µM (inactive)
same,GI50,HOP-92,> 100 µM (inactive)
same,GI50,SK-MEL-28,> 100 µM (inactive)
same,GI50,HT-29,> 100 µM (inactive)
same,GI50,Malme-3M,> 100 µM (inactive)
same,GI50,M14,> 100 µM (inactive)
same,GI50,CAKI-1,> 100 µM (inactive)
same,GI50,SF-295,> 100 µM (inactive)
same,GI50,NCI-H460,> 100 µM (inactive)
same,GI50,NCI-H522,> 100 µM (inactive)
same,GI50,KM12,> 100 µM (inactive)
same,GI50,SN12C,> 100 µM (inactive)
same,GI50,SK-MEL-2,> 100 µM (inactive)
same,GI50,HOP-62,> 100 µM (inactive)
same,GI50,MDA-MB-231,> 100 µM (inactive)
same,GI50,LOX IMVI,> 100 µM (inactive)
same,GI50,HL-60,> 100 µM (inactive)
same,GI50,OVCAR-8,> 100 µM (inactive)
O=c1[nH]c(=O)n(C2OC(CO)C(O)C(F)C2O)cc1F (stereo unspecified),GI50,NCI-H23,> 100 µM (inactive)
same,GI50,SK-MEL-5,> 100 µM (inactive)
same,GI50,T47D,> 100 µM (inactive)
same,GI50,MDA-N,> 100 µM (inactive)
same,GI50,UO-31,> 100 µM (inactive)
same,GI50,SF-268,> 100 µM (inactive)
same,GI50,PC-3,> 100 µM (inactive)
same,GI50,U-251,> 100 µM (inactive)
same,GI50,OVCAR-3,> 100 µM (inactive)
same,GI50,A549,> 100 µM (inactive)
same,GI50,K562,> 100 µM (inactive)
same,GI50,HCT-15,> 100 µM
same,GI50,RPMI-8226,> 100 µM (inactive)
same,GI50,CCRF-CEM,> 100 µM (inactive)
same,GI50,SW-620,> 100 µM (inactive)
same,GI50,UACC-257,> 100 µM (inactive)
same,GI50,SF-539,> 100 µM (inactive)
same,GI50,Hs-578T,> 100 µM (inactive)
same,GI50,NCI/ADR-RES,> 100 µM (inactive)
same,GI50,SNB-19,> 100 µM (inactive)
same,GI50,MOLT-4,0.0803 µM (active)
same,GI50,OVCAR-5,> 100 µM (inactive)
same,GI50,TK-10,> 100 µM (inactive)
same,GI50,MCF7,> 100 µM (inactive)
same,GI50,786-0,> 100 µM (inactive)
same,GI50,HCC 2998,> 100 µM (inactive)
same,GI50,NCI-H226,> 100 µM (inactive)
same,GI50,HCT-116,> 100 µM (inactive)
same,GI50,UACC-62,> 100 µM (inactive)
same,GI50,OVCAR-4,> 100 µM (inactive)
same,GI50,A498,> 100 µM (inactive)
same,GI50,ACHN,> 100 µM (inactive)
same,GI50,DU-145,> 100 µM (inactive)
same,GI50,COLO 205,> 100 µM (inactive)
same,GI50,BT-549,> 100 µM (inactive)
same,GI50,MDA-MB-435,> 100 µM (inactive)
same,GI50,SR,25.4 µM (inactive)
same,GI50,SK-OV-3,> 100 µM (inactive)
same,GI50,HOP-92,> 100 µM (inactive)
same,GI50,SK-MEL-28,> 100 µM (inactive)
same,GI50,HT-29,> 100 µM (inactive)
same,GI50,Malme-3M,> 100 µM (inactive)
same,GI50,M14,> 100 µM (inactive)
same,GI50,CAKI-1,> 100 µM (inactive)
same,GI50,SF-295,> 100 µM (inactive)
same,GI50,NCI-H460,> 100 µM (inactive)
same,GI50,NCI-H522,> 100 µM (inactive)
same,GI50,SN12C,> 100 µM (inactive)
same,GI50,SK-MEL-2,> 100 µM (inactive)
same,GI50,MDA-MB-231,> 100 µM (inactive)
same,GI50,LOX IMVI,> 100 µM (inactive)
same,GI50,HL-60,> 100 µM (inactive)
same,GI50,OVCAR-8,> 100 µM (inactive)
